{"source": "patent US7351737B2", "about": "“4-[(8-substituted)-6-chromanoyl]-and 4-[8-substituted)-chroman-6-YL-ethynyl]-benzoic and phenylacetic acids, their esters and salts having cytochrome P450RAI inhibitory activity” (Allergan, Inc., priority 2002, dated 2008)", "tested_on": "skin of fuzzy rats", "test": "Topical skin irritation test", "type": "in vivo, female fuzzy rats (Hsd:FUZZY-fz)", "conditions": "0.1% retinol alone, topical in acetone, daily Day 1-14; group average of erythema/eschar grade 0-4 (Table 2)", "description": "The topical retinoid all-trans-retinoic acid (ATRA) and oral retinoids such as 13-cis RA and etretinate are known to induce substantial skin irritation in humans. This irritation is a direct result of activation of the RAR nuclear receptors. Analysis of retinoid topical irritation is also a highly reproducable method of determining in vivo retinoid potency. The female fuzzy rats provide a convenient animal model of topical irritation, since retinoid-induced skin flaking and abrasion can be readily scored by eye, while their larger size than those of mice also allows multiple sampling of serum for clinical analyses. Topical application of P450RAI inhibitors should cause an increase in the endogenous levels of ATRA that would result in ATRA-induced irritation in skin of hairless mice. In these tests female fuzzy rats ((Hsd:FUZZY-fz), 6-7 weeks old, were obtained from Harlan Sprague-Dawley (Indianapolis, Ind.). The animals were about 8-9 weeks old at the start of the experiments. Food (Purina Rodent Chow 5001) and water purified by reverse osmosis were provided ad libitum. The rats were housed individually throughout the dosing period. Test chemicals were dissolved in acetone (vehicle) for application to the backs of the rats. Two days prior to actual administration of the test compounds, rats were handled daily and dosed with vehicle at a volume of 0.5 ml/kg. Starting on Day 1 thought Day 14 (dosing period), animals were dosed with the vehicle or compound(s) according to their group assignment. The rats in the tests were observed daily and the dorsal skin was graded for the degree of erythema/eschar and overall appearance. The scoring was in accordance with Table 2, below. [table] Daily group average was calculated by dividing the sum of the individual grade by the number of animals in each treatment group. The attached data in Table 3 indicates the retinoid-mimetic effects of some P450RAI inhibitors on the skin of fuzzy rats in the above described tests and in accordance with the above-indicated scoring."}
{"smiles": "CC1=C(/C=C/C(C)=C/C=C/C(C)=C/CO)C(C)(C)CCC1", "note": "[retinol, reference compound]", "values": [{"measurement": "Irritation Score on day 14", "result": 1}]}
